Measurements taken from patent US20100160342A1, “Compositions of Topical Ocular Solutions to Deliver Effective Concentrations of Active Agent to the Posterior Segment of the Eye” (ALCON RESEARCH, LTD., priority 2008, published 2010).

Assays:
[1] = Text: Another preferred criterion for improving the bioavailability of the active agent is establishing a pH range for the composition which provides the highest solubility. It will be apparent to the skilled artisan that the pH of the composition will depend upon the concentration and the salt form of the active agent in the composition.
[2] = Ocular comfort / stinging upon topical administration to the eye
Text: It is well known that acidic solutions alone cause ocular stinging.

[3] = in vivo

Molecule	solubility versus theoretical solubility predicted by the Handerson-Hasselbach relationship [1]	ocular stinging / comfort ([2]; ophthalmic solution administered topically to the eye)	aqueous humor (AqH) drug level, 0.5% HPMC versus 0% HPMC [3] [fold]	retina drug level, 0.5% HPMC versus 0% HPMC [3] [% HPMC ˜0% HPMC]	solubility compared with the free base [1]	ocular stinging / comfort ([2]; in vivo)
O=C1[C@@H]2[C@H]3CC[C@H](C3)[C@@H]2C(=O)N1CCCCN1CCN(c2ncccn2)CC1 [Tandospirone, tandospirone]	does not exhibit this solubility dip	more comfortable	~3	0.5		
tandospirone citrate [tandospirone citrate salt]	decreased substantially				dramatically less than that of the free base	stings
